Laboratory results taken from patent publication US20110033906A1 (priority 2009, published 2011).

Tests used:
[1] = system: cellulase surface-displaying yeast (arming yeast); settings: 120 hours after the start of fermentation

| Compound | yeast survivability (live cell counts) (yeast (MT 8-1)) | ethanol yield relative to theoretical yield [1] | ethanol obtained ([1]; crystalline cellulose (Avicel) pretreated with [Emim][DEP], arming yeast, ionic liquid present) |
| --- | --- | --- | --- |
| CCn1cc[n+](C)c1 [[Emim][Cl], 1-ethyl-3-methylimidazolium chloride] | not greatly affected |  |  |
| 1-ethyl-3-methylimidazolium diethylphosphate [[Emim][DEP]] |  | about 56% | 1.43 g/L |
